In PubChem BioAssay (NCI):
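Growth conditions: 96-well plates. Treatment: test compound, 48 hours, 5 concentrations. Analysis: linear interpolation between bracketing concentrations; unreached endpoints set to highest concentration. At the GI50, growth is halved. The concentration for full growth arrest is given as TGI.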

Assays:
Test in all cases: NCI tumour cell line growth inhibition, 48 h
MCF7 breast = test system: MCF7 breast
OVCAR-5 ovarian = test system: OVCAR-5 ovarian
NCI-H460 lung = test system: NCI-H460 lung
PC-3 prostate = test system: PC-3 prostate
NCI-H522 lung = test system: NCI-H522 lung
MOLT-4 leukemia = test system: MOLT-4 leukemia
UO-31 renal = test system: UO-31 renal
SR leukemia = test system: SR leukemia
SNB-75 CNS = test system: SNB-75 CNS
SK-MEL-2 melanoma = test system: SK-MEL-2 melanoma

Row | SMILES | GI50 (MCF7 breast) [µM] | TGI (MCF7 breast) [µM] | GI50 (OVCAR-5 ovarian) [µM] | TGI (OVCAR-5 ovarian) [µM] | GI50 (NCI-H460 lung) [µM] | TGI (NCI-H460 lung) [µM] | GI50 (PC-3 prostate) [µM] | TGI (PC-3 prostate) [µM] | GI50 (NCI-H522 lung) [µM] | TGI (NCI-H522 lung) [µM] | GI50 (MOLT-4 leukemia) [µM] | TGI (MOLT-4 leukemia) [µM] | GI50 (UO-31 renal) [µM] | TGI (UO-31 renal) [µM] | GI50 (SR leukemia) [µM] | TGI (SR leukemia) [µM] | GI50 (SNB-75 CNS) [µM] | TGI (SNB-75 CNS) [µM] | GI50 (SK-MEL-2 melanoma) [µM] | TGI (SK-MEL-2 melanoma) [µM]
1 | CCCCCc1c(C)[nH]c(/C=c2\[nH]/c(=C3/C=c4ccccc4=N3)cc2OC)c1C | 0.0425 | 1.43 | 0.0654 | 1.81 | 0.0614 | 11.2 | 0.0544 | > 100 | 0.101 | 1.7 | 0.102 | 3.85 | 0.0882 | 0.329 | 0.0335 | 0.529 | 0.107 | 0.583 | 0.0394 | 0.193
2 | O=C(CC1(O)C(=O)Nc2c(Cl)ccc(Cl)c21)c1ccc(C2CC2)cc1 (stereo not drawn) | 0.322 | 14.5 | 2.05 | 16.8 | 0.622 | 9 | 1.38 | 16.6 | 0.43 | 1.9 | 1.19 | 18.1 | 1.58 | 19.6 | 0.106 | 15.3 | 1.99 | 9.33 | 2.06 | 8.83
3 | CN(C)CCOc1nc2ccccc2c2c1-c1ccc(Cl)cc1C2=O | 0.324 | 1.39 | 1.27 | – | 0.365 | 1.3 | 1.34 | 7.69 | 0.573 | 2.09 | 0.302 | 1.51 | 0.222 | 1.27 | 0.305 | 1.03 | 1.22 | 2.62 | 2.34 | 4.68
4 | COc1cc2c3c(c1O)C1(C=CC(=O)C=C1)CC3N(C)CC2 (stereo not drawn) | – | 20.5 | – | 36.3 | – | 18.3 | – | 31.1 | – | 7.21 | – | 37.3 | – | – | – | 25.8 | – | 43.4 | – | 25.9
5 | CN1CCN(c2ccc3nc4c(nc3c2C(F)(F)F)C(=O)c2ncccc2C4=O)CC1 | 0.316 | 2.09 | – | – | 0.273 | 1.32 | 1.44 | 11.5 | 1.16 | 3.55 | 2.28 | 5.52 | 1.33 | 2.84 | 0.446 | > 100 | 1.11 | 2.32 | 2.05 | 4.34
6 | O=C(NO)c1cnc(N2CCN(S(=O)(=O)c3ccc4ccccc4c3)CC2)nc1 | 0.0369 | > 76 | 0.0394 | 10.6 | 0.0535 | 11.9 | 0.078 | > 36 | 0.02 | 0.104 | 0.0424 | > 41.3 | 0.0597 | 0.854 | 0.0387 | > 90.7 | 0.0265 | 10.8 | 0.0345 | 0.214
7 | O=[N+]([O-])c1ccc(-c2ccccc2)c([As](=O)(O)O)c1 | 3.75 | 16.1 | 28.4 | > 100 | 28 | > 100 | 16.1 | > 100 | 6.92 | 21.3 | 19.9 | > 100 | 12.3 | 44.8 | 10.3 | 57.3 | 15.1 | > 100 | 28.2 | 62.8
8 | CCN(CC)c1ccc2nc3c4ccccc4c(=NC(=O)c4ccccc4-c4c5ccc(N(CC)CC)cc5[o+]c5cc(N(CC)CC)ccc45)cc-3oc2c1 | 1.59 | – | 3.23 | 11.9 | 2.29 | 10.1 | 1.97 | > 20.6 | 3.14 | 21.9 | 1.81 | > 100 | 1.49 | 15 | 2.74 | 20.5 | 8.27 | 23.5 | 3.4 | 9.15
9 | c1cnc2c(c1)Nc1cnncc1S2 | – | > 100 | – | > 100 | – | > 100 | – | > 100 | – | > 100 | – | > 100 | – | > 100 | – | > 100 | – | 97.8 | – | > 100
10 | Nc1cccc2nsnc12 | – | > 100 | – | > 100 | – | > 100 | – | > 100 | – | > 52.2 | – | > 54.5 | – | > 100 | – | > 63.5 | – | > 100 | – | > 100
11 | COC(=O)Nc1nc2ccc(Sc3ccccc3)cc2[nH]1 | 0.0666 | 26 | 0.511 | 23.4 | 0.247 | 11.6 | 0.214 | > 37.4 | 0.113 | 0.587 | 0.262 | – | 0.848 | 20.5 | 0.035 | – | 0.195 | 2.05 | 0.162 | 2.88
12 | C=C1CO[C@@H]2C[C@@H]1CC/C(C)=C/CC/C(C)=C/CC[C@@]2(C)O | 25.4 | > 63.6 | 18.7 | 39.9 | 24.1 | > 68.3 | 15.7 | 33.6 | 21.1 | 45.2 | 1.26 | 12.4 | 17.1 | 36.5 | 1.71 | 12.8 | 25 | 46.3 | 27.4 | > 64
13 | O=C(/C=C/c1cccc(B(O)O)c1)c1cccc(B(O)O)c1 | 0.742 | 7.58 | 2.17 | 4.87 | 1.99 | 4.53 | 2.53 | 11.2 | 1.51 | 3.02 | 2.1 | 5.96 | 1.71 | 3.36 | 0.314 | 1.65 | 3.61 | 16.3 | 2.26 | 5.2
